Patent US9863953B2, “Method for determining prognosis of cancer” (KYOTO UNIVERSITY, priority 2013, dated 2018)
Entries after “also recorded” stand apart in the source; their conditions may differ.

Tests used:
DAB1 = DAB1 mRNA quantitative RT-PCR in LS174T cells on rDLL4; assay type: cell-based, human
Protocol: (§1) Recombinant DLL4 (rDLL4) (R&D) was resuspended with PBS. For scratch and GTP-Rho pull-down assays, 1 μg was put into 6-well culture plate to coat its surface with rDLL4 at 0.1 μg/cm^2. For q-RT-PCR assays, the plate surface was coated with rDLL4 at 0.1-1 μg/cm^2. After overnight incubation at 4-degree, the plates were washed once with PBS and plated with CRC cells. For expression analysis of HES1 and DAB1, cells were lysed and mRNA was extracted after four hours.
TaqMan primers/probes for quantification of HES1, DAB1, ABL1, and ABL2 mRNAs were purchased from ABI. ChIP analyses were performed by using CRC cells and anti-Rbpj (Institute of Immunology) and anti-NICD (Cell Signaling Technology) antibodies according to published protocol (Kakizaki et al., 2010). Precipitated fragments of genomic DNA were tested for enrichment of promoter regions of HES1 gene by SYBR green (ABI) using hHES1ChIP.F ([…]) (SEQ ID NO: 4) and hHES1ChIP.R ([…]) (SEQ ID NO: 5) primers that sandwich high affinity binding sequence of Rbpj. Similarly, enrichment of DAB1 promoter fragments was quantified by hDAB1ChIP.F2 ([…]) (SEQ ID NO: 6) and hDAB1ChIP.R2 ([…]) (SEQ ID NO: 7) primers.

Rho = assay: Active Rho (GTP-Rho) pull-down assay in RKO cells; assay type: cell-based, human
Protocol: GTP-Rho was pulled-down and detected by using Rho activation assay kit (Thermo) according to the manufacturers' protocol. Briefly, tissues or CRC cells were lysed with lysis buffer, and GTP-Rho in the lysates was pulled-down using Rhotekin and detected by anti-Rho antibody in western analysis.
as §1
(§2) Cultured CRC cells were washed with PBS, treated with 10 mM EDTA in PBS for 2 minutes, and incubated again in culture media. […] After incubation for defined period, cells were lysed and cleaved Notch and GTP-Rho was detected. DAPT (Calbiochem) were applied to cultured CRC cells to inhibit its γ-secretase activity.

HCT116 cells [1] = assay: Attachment assay of CRC cells to lung endothelial cell layer; assay type: cell-based, human
Protocol: Attachment assay was performed according to the established protocol {Reymond, 2012}. Briefly, human lung endothelial cells were plated onto collagen-coated dish. After they reached confluent to form a layer, EGFP-labeled CRC cells were plated onto it. Fifteen minutes later, floating cells were washed with PBS, and the numbers of CRC cells adhering to the endothelial layer were counted under a fluorescent microscope.

Notch receptor = Notch receptor cleavage (NICD) after EDTA treatment, IP-western; assay type: cell-based, human; settings: 10 mM EDTA; anti-Notch1 (C-term) antibody
Protocol: as §2
ABL1B cDNA was prepared from cDNA pool of human colon and tagged with hemaglutinin (HA) sequence to construct ABL1B-HA. The wild-type cDNA was mutagenized by QuikChange Lightning Multi Site-Directed Mutagenesis Kit (Agilent) to derive kinase-dead ABL1B(K290R)-HA mutant. These ABL1B constructs were placed into pEFBosneo expression vector (provided by Shigekazu Nagata, Kyoto University, Japan). DAB1-Flag cDNA was inserted into pcDNA3 (Invitrogen). TRIO cDNA (provided by Anne Debant, CRBM-CNRS, France) was tagged with T7 sequence and inserted into pCX expression vector carrying CAG promoter and rabbit β-globin poly(A) (provided by Masaru Okabe, Osaka University, Japan). NICD-Myc expression vector was provided by Tasuku Honjo, Kyoto University, Japan. These expression vectors were transfected into CRC or HEK293T cells using Lipofectamine LTX (Invitrogen). Sixteen hours post-transfection, the cells were lysed in lysis buffer (10 mM Tris-Cl, 1 mM EDTA, 150 mM NaCl and 1% NP-40). The supernatants were mixed with agarose conjugated with anti-HA, Flag, T7, or Myc antibodies (MBL). […]

RKO human CRC cells [2] = assay: Matrigel invasion assay, RKO cells; assay type: cell-based; settings: for Matrigel invasion of RKO cells: inhibitor treatment 16 h prior to assay
Protocol: (§3) Matrigel invasion assays were performed as previously described using Matrigel (BD) {Sonoshita, 2011}. For TEM assay, human umbilical vein endothelial cell (HUVEC) was seeded in the upper chamber of Transwell (Corning). One day (24 h) later, EGFP-labeled CRC cells were plated onto the layer of HUVEC. After 24 h, CRC cells migrated to the lower side of the membrane were counted under a fluorescent microscope.

HCT116 cells [3] = assay: Matrigel invasion assay, HCT116 cells; assay type: cell-based, human
Protocol: as §3

HCT116 = assay: Transendothelial migration (TEM) assay, HCT116 cells; assay type: cell-based, human; settings: HCT116, data not shown
Protocol: as §3

RKO human CRC cells [4] = assay: Transendothelial migration (TEM) assay, RKO cells; assay type: cell-based; settings: inhibitor treatment 16 h prior, HUVEC layer, 24 h
Protocol: as §3

[5] = test system: Apc/Aes compound mutant mice; assay: Tumor invasion histopathology in Apc/Aes compound mutant mice; assay type: in vivo, mouse; settings: 50 mg/kg/day i.p. for 9 weeks
Excerpt: Apc^+/Δ716 mutant mice were generated and maintained as described previously {Oshima, 1995}. Apc^+/Δ716Aes^Floxed/FloxedvCre^ERT2 (abbreviated as Apc/Aes) mice were constructed as reported to knockout Aes in Apc^+/Δ716 mice by virtue of Cre^ERT2 whose expression is driven by intestinal epithelium-specific villin promoter {Sonoshita, 2011}. Rbpj floxed allele was constructed as reported {Han, 2002}, obtained from RIKEN BRC, and crossed with Apc/Aes mice to derive Apc^+/Δ716Aes^Floxed/FloxedRbpj^Floxed/FloxedvCre^ERT2 (Apc/Aes/Rbpj) mice. Dab1 floxed allele was constructed (Imai et al., in preparation) and crossed with Apc/Aes mice to obtain Apc^+/Δ716Aes^Floxed/FloxedDab1^Floxed/FloxedvCre^ERT2 (Apc/Aes/Dab1) mice. Tumor histopathology in compound mutant mice was analyzed at 12 weeks of age. […] Total of ˜100 tumors with diameters larger than 2 mm from 5 mice were scored for each mutant genotype. CRC cell lines were obtained from ATCC. Upon transplantation into the rectal smooth muscle, CRC cells formed a visible primary tumor within a week. Six weeks later, mice were euthanized and examined for metastatic foci under a fluorescent microscope (Leica). All animal experiments were conducted according to the protocol approved by the Animal Care and Use Committee of Kyoto University.

TRIO = assay: Cell-free RhoGEF GTP exchange assay; assay type: biochemical, human; settings: TRIO(WT) from imatinib-treated HEK293T transfectants; recombinant RhoA, mant-GTP, 10 min
Excerpt: First, we transfected HEK293T cells with an expression plasmid for T7-TRIO (either WT, Y2681F or G2699V), and pulled-down each TRIO protein from cell lysates using agarose conjugated with anti-T7 antibody (MBL). Then we mixed the TRIO fraction with recombinant RhoA in the presence of mant-GTP (Cytoskeleton) that emits stronger fluorescence when bound to Rho small GTPases (Rossman et al., 2002).

Q: How did the “DAB1 mRNA expression induced by rDLL4” value (DAB1; LS174T, 10 μM DAPT for 24 h, rDLL4-coated dishes, 4 h) turn out when `C[C@H](NC(=O)Cc1cc(F)cc(F)c1)C(=O)N[C@H](C(=O)OC(C)(C)C)c1ccccc1` [DAPT] was run?
A: Its value is “inhibited”.

Q: What about the “Rho activation (GTP-Rho) after Notch receptor activation with EDTA” value (Rho; RKO cells, 10 μM DAPT for 12 h, then 10 mM EDTA) of the same compound?
A: The value was “inhibited; also recorded: Suppression”.

Q: And the “Number of CRC cells remaining attached to the EC layer” value (HCT116 cells [1]; HCT116 treated 2 hours, washing at 15 min post plating)?
A: The value was “reduced”.

Q: And the “EC adhesion of CRC cells with RBPJ knocked-down” value (HCT116 cells [1]; RBPJ-knockdown HCT116, DAPT 2 hours)?
A: Its value is “prevented”.

Q: What about the “Cleaved Notch receptor (NICD) upon EDTA treatment” value (Notch receptor) of the same compound?
A: The value was “blocked; also recorded: inhibited”.

Q: With `CCN(CC)CCCC(C)Nc1nc(C)cc(Nc2ccc3nc(C)cc(N)c3c2)n1` (centres unmarked) [NSC23766] as the compound, how does the “Matrigel invasion of RKO cells” value (RKO human CRC cells [2]) read?
A: Its value is “did not affect”.

Q: What about the “Matrigel invasion of RKO cells” value (RKO human CRC cells [2]; listed as NSC27366) of the same compound?
A: Its value is “Little effect”.

Q: With `CC(C)(C)n1nc(-c2ccc(Cl)cc2)c2c(N)ncnc21` [PP2] as the compound, how does the Matrigel invasion (HCT116 cells [3]; PP2 at 10 μm, FIG. 10A) read?
A: The Matrigel invasion was “only a minor effect”.

Q: And the “effect on the RKO cell invasion in culture” value (RKO human CRC cells [2]; RKO cell invasion in culture, FIG. 10A)?
A: The value was ~20%.

Q: And the “Matrigel invasion of RKO cells” value (RKO human CRC cells [2])?
A: Its value is “only a minor inhibition”.

Q: Which “Transendothelial migration (TEM) of HCT116 cells” value (HCT116) does the source give for `C[C@@H](N)[C@H]1CC[C@H](C(=O)Nc2ccncc2)CC1` [Y-27632] here?
A: The value was “suppressed”.

Q: What about the “Transendothelial migration (TEM) of RKO cells” value (RKO human CRC cells [4]) of the same compound?
A: Its value is “suppresses”.

Q: And the “Matrigel invasion of HCT116 cells” value (HCT116 cells [3]; HCT116, data not shown)?
A: Its value is “suppressed”.

Q: And the “Matrigel invasion of RKO cells” value (RKO human CRC cells [2])?
A: Its value is “suppresses”.

Q: `Cc1nc(Nc2ncc(C(=O)Nc3c(C)cccc3Cl)s2)cc(N2CCN(CCO)CC2)n1.O` [dasatinib, N-(2-chloro-6-methylphenyl)-2-[[6-[4-(2-hydroxyethyl)-1-piperazinyl]-2-methyl-4-pyrimidinyl]amino]-5-thiazole carboxamide monohydrate] was tested. Which “HCT116 cell invasion in Matrigel” value (HCT116 cells [3]; dasatinib at 0.01 μm, FIG. 10A) did it give?
A: Its value is “tight suppression”.

Q: What about the “Matrigel invasion of RKO cells” value (RKO human CRC cells [2]) of the same compound?
A: The value was “suppressed the invasion significantly”.

Q: How did the “tumor size or number” value [5] turn out when `Cc1ccc(NC(=O)c2ccc(CN3CCN(C)CC3)cc2)cc1Nc1nccc(-c2cccnc2)n1` [imatinib, 4-(4-methylpiperazin-1-ylmethyl)-N-[4-methyl-3-(4-(pyridin-3-yl)-pyrimidin-2-ylamino-)phenyl]-benzamide] was run?
A: The value was “without changing”.

Q: What about the “CRC invasion (depth of tumor invasion)” value ([5]; 50 mg/kg/day) of the same compound?
A: Its value is “significant suppression; also recorded: suppresses”.

Q: What about the “Capacity of Rho activation (RhoGEF activity) of TRIO(WT) purified from imatinib-treated cells” value (TRIO) of the same compound?
A: Its value is “significantly decreased”.

Q: And the “Rho activation (GTP-Rho) induced by EDTA” value (Rho; RKO cells, pull-down 5 minutes after EDTA, dose-dependent)?
A: Its value is “blocked; also recorded: inhibits”.

Q: And the “Matrigel invasion of RKO cells” value (RKO human CRC cells [2])?
A: The value was “blocks”.

Q: How did the “DAB1 mRNA expression” value (DAB1; LS174T on immobilized rDLL4 0.1-1 μg/cm^2, 4 h, dose-dependent) turn out when “rDLL4: recombinant extracellular domain of Notch ligand DLL4 (R&D), immobilized on dish surface” was run?
A: Its value is “increased; also recorded: induces”.

Q: What about the “Rho activation (GTP-Rho)” value (Rho; cultured CRC cells on dishes coated with rDLL4) of the same compound?
A: Its value is “activated”.
